Measurements: the CheMixHub ionic liquid set

Assay: xn = mol fraction of the nth substance listed
Conditions: 101 kPa

Cc1ncc(C[n+]2csc(CCO)c2C)c(N)n1.Cl.[Cl-] + CCCCCCCCCCCCOS(=O)(=O)[O-].[Na+] + O
electrical conductivity [S/m]
Conditions | 308.15 K | 318.15 K
x2 = 0, x1 = 1.8e-07 | 0.00293 | 0.00286
x2 = 0, x1 = 9e-07 | 0.00544 | 0.00608
x2 = 0, x1 = 1.8e-06 | 0.00836 | 0.00964
x2 = 7.35e-06, x1 = 1.8e-07 | 0.00693 | 0.00698
x2 = 7.35e-06, x1 = 9e-07 | 0.00954 | 0.0104
x2 = 7.35e-06, x1 = 1.8e-06 | 0.0129 | 0.0147
x2 = 1.463e-05, x1 = 1.8e-07 | 0.0109 | 0.0112
x2 = 1.463e-05, x1 = 9e-07 | 0.0135 | 0.0145
x2 = 1.463e-05, x1 = 1.8e-06 | 0.0172 | 0.0195
x2 = 2.18e-05, x1 = 1.8e-07 | 0.0147 | 0.0153
x2 = 2.18e-05, x1 = 9e-07 | 0.0175 | 0.0186
x2 = 2.18e-05, x1 = 1.8e-06 | 0.0213 | 0.0241
x2 = 2.901e-05, x1 = 1.8e-07 | 0.0186 | 0.0195
x2 = 2.901e-05, x1 = 9e-07 | 0.0215 | 0.0226
x2 = 2.901e-05, x1 = 1.8e-06 | 0.0254 | 0.0286
x2 = 3.604e-05, x1 = 1.8e-07 | 0.0224 | 0.0235
x2 = 3.604e-05, x1 = 9e-07 | 0.0254 | 0.0266
x2 = 3.604e-05, x1 = 1.8e-06 | 0.0296 | 0.033
x2 = 4.307e-05, x1 = 1.8e-07 | 0.026 | 0.0276
x2 = 4.307e-05, x1 = 9e-07 | 0.0293 | 0.0306
x2 = 4.307e-05, x1 = 1.8e-06 | 0.0336 | 0.0375
x2 = 4.991e-05, x1 = 1.8e-07 | 0.0297 | 0.0315
x2 = 4.991e-05, x1 = 9e-07 | 0.0331 | 0.0346
x2 = 4.991e-05, x1 = 1.8e-06 | 0.0376 | 0.0417
x2 = 5.676e-05, x1 = 1.8e-07 | 0.0333 | 0.0355
x2 = 5.676e-05, x1 = 9e-07 | 0.0367 | 0.0386
x2 = 5.676e-05, x1 = 1.8e-06 | 0.0416 | 0.0458
x2 = 6.361e-05, x1 = 1.8e-07 | 0.037 | 0.0393
x2 = 6.361e-05, x1 = 9e-07 | 0.0404 | 0.0425
x2 = 6.361e-05, x1 = 1.8e-06 | 0.0455 | 0.0498
x2 = 7.027e-05, x1 = 1.8e-07 | 0.0405 | 0.043
x2 = 7.027e-05, x1 = 9e-07 | 0.0441 | 0.0464
x2 = 7.028e-05, x1 = 1.8e-06 | 0.0493 | 0.0537
x2 = 7.694e-05, x1 = 1.8e-07 | 0.044 | 0.0467
x2 = 7.694e-05, x1 = 9e-07 | 0.0477 | 0.0503
x2 = 7.694e-05, x1 = 1.8e-06 | 0.0529 | 0.0576
x2 = 8.361e-05, x1 = 1.8e-07 | 0.0473 | 0.0503
x2 = 8.361e-05, x1 = 9e-07 | 0.0513 | 0.0542
x2 = 8.361e-05, x1 = 1.8e-06 | 0.0564 | 0.0614
x2 = 9.009e-05, x1 = 1.8e-07 | 0.0507 | 0.0539
x2 = 9.009e-05, x1 = 9e-07 | 0.0547 | 0.058
x2 = 9.009e-05, x1 = 1.8e-06 | 0.0597 | 0.0651
x2 = 9.658e-05, x1 = 1.8e-07 | 0.054 | 0.0576
x2 = 9.658e-05, x1 = 9e-07 | 0.0581 | 0.0618
x2 = 9.658e-05, x1 = 1.8e-06 | 0.0627 | 0.0686
x2 = 0.0001031, x1 = 1.8e-07 | 0.0571 | 0.0611
x2 = 0.0001031, x1 = 9e-07 | 0.0612 | 0.0653
x2 = 0.0001031, x1 = 1.8e-06 | 0.0656 | 0.0721
x2 = 0.0001094, x1 = 1.8e-07 | 0.0601 | 0.0643
x2 = 0.0001094, x1 = 9e-07 | 0.0641 | 0.0687
x2 = 0.0001094, x1 = 1.8e-06 | 0.0684 | 0.0754
x2 = 0.0001157, x1 = 1.8e-07 | 0.0629 | 0.0676
x2 = 0.0001157, x1 = 9e-07 | 0.0668 | 0.0719
x2 = 0.0001157, x1 = 1.8e-06 | 0.071 | 0.0784
x2 = 0.000122, x1 = 1.8e-07 | 0.0658 | 0.0707
x2 = 0.000122, x1 = 9e-07 | 0.0696 | 0.075
x2 = 0.000122, x1 = 1.8e-06 | 0.0734 | 0.0813
x2 = 0.0001281, x1 = 1.8e-07 | 0.0684 | 0.0736
x2 = 0.0001281, x1 = 9e-07 | 0.0725 | 0.0777
x2 = 0.0001281, x1 = 1.8e-06 | 0.0755 | 0.0841
x2 = 0.0001342, x1 = 1.8e-07 | 0.0709 | 0.0764
x2 = 0.0001342, x1 = 9e-07 | 0.0746 | 0.0802
x2 = 0.0001342, x1 = 1.8e-06 | 0.0776 | 0.0868
x2 = 0.0001404, x1 = 1.8e-07 | 0.0732 | 0.079
x2 = 0.0001404, x1 = 9e-07 | 0.0766 | 0.0822
x2 = 0.0001404, x1 = 1.8e-06 | 0.0797 | 0.0894
x2 = 0.0001465, x1 = 1.8e-07 | 0.0752 | 0.0816
x2 = 0.0001465, x1 = 9e-07 | 0.0783 | 0.0841
x2 = 0.0001465, x1 = 1.8e-06 | 0.0817 | 0.0919
x2 = 0.0001524, x1 = 1.8e-07 | 0.077 | 0.0838
x2 = 0.0001524, x1 = 9e-07 | 0.08 | 0.086
x2 = 0.0001524, x1 = 1.8e-06 | 0.0836 | 0.0943
x2 = 0.0001584, x1 = 1.8e-07 | 0.0786 | 0.0858
x2 = 0.0001584, x1 = 9e-07 | 0.0816 | 0.0878
x2 = 0.0001584, x1 = 1.8e-06 | 0.0855 | 0.0962
x2 = 0.0001641, x1 = 1.8e-07 | 0.0802 | 0.0876
x2 = 0.0001641, x1 = 9e-07 | 0.0831 | 0.0895
x2 = 0.0001641, x1 = 1.8e-06 | 0.0874 | 0.0981
x2 = 0.0001699, x1 = 1.8e-07 | 0.0817 | 0.0893
x2 = 0.0001699, x1 = 9e-07 | 0.0846 | 0.0911
x2 = 0.0001699, x1 = 1.8e-06 | 0.0893 | 0.1
x2 = 0.0001757, x1 = 1.8e-07 | 0.083 | 0.0909
x2 = 0.0001757, x1 = 9e-07 | 0.086 | 0.0927
x2 = 0.0001757, x1 = 1.8e-06 | 0.091 | 0.102
x2 = 0.0001814, x1 = 1.8e-07 | 0.0843 | 0.0924
x2 = 0.0001814, x1 = 9e-07 | 0.0874 | 0.0943
x2 = 0.0001814, x1 = 1.8e-06 | 0.0928 | 0.104
x2 = 0.000187, x1 = 1.8e-07 | 0.0855 | 0.0939
x2 = 0.000187, x1 = 9e-07 | 0.0887 | 0.0957
x2 = 0.000187, x1 = 1.8e-06 | 0.0946 | 0.106
x2 = 0.0001928, x1 = 1.8e-07 | 0.0867 | 0.0952
x2 = 0.0001928, x1 = 9e-07 | 0.09 | 0.0974
x2 = 0.0001928, x1 = 1.8e-06 | 0.0964 | 0.107
x2 = 0.0001982, x1 = 1.8e-07 | 0.0879 | 0.0966
x2 = 0.0001982, x1 = 9e-07 | 0.0912 | 0.0991
x2 = 0.0001982, x1 = 1.8e-06 | 0.0982 | 0.109
x2 = 0.0002038, x1 = 1.8e-07 | 0.089 | 0.0979
x2 = 0.0002038, x1 = 9e-07 | 0.0924 | 0.101
x2 = 0.0002038, x1 = 1.8e-06 | 0.0997 | 0.111
x2 = 0.0002092, x1 = 1.8e-07 | 0.0901 | 0.0992
x2 = 0.0002092, x1 = 9e-07 | 0.0936 | 0.102
x2 = 0.0002092, x1 = 1.8e-06 | 0.101 | 0.112
x2 = 0.0002147, x1 = 1.8e-07 | 0.0913 | 0.1
x2 = 0.0002148, x1 = 9e-07 | 0.0949 | 0.104
x2 = 0.0002148, x1 = 1.8e-06 | 0.102 | 0.114
x2 = 0.00022, x1 = 1.8e-07 | 0.0925 | 0.102
x2 = 0.00022, x1 = 9e-07 | 0.0961 | 0.105
x2 = 0.00022, x1 = 1.8e-06 | 0.104 | 0.115
x2 = 0.0002254, x1 = 1.8e-07 | 0.0937 | 0.103
x2 = 0.0002254, x1 = 9e-07 | 0.0974 | 0.107
x2 = 0.0002254, x1 = 1.8e-06 | 0.105 | 0.116
x2 = 0.0002306, x1 = 1.8e-07 | 0.0949 | 0.104
x2 = 0.0002306, x1 = 9e-07 | 0.0986 | 0.108
x2 = 0.0002306, x1 = 1.8e-06 | 0.106 | 0.117
x2 = 0.0002358, x1 = 1.8e-07 | 0.0962 | 0.105
x2 = 0.0002358, x1 = 9e-07 | 0.0998 | 0.109
x2 = 0.0002358, x1 = 1.8e-06 | 0.107 | 0.119
x2 = 0.0002411, x1 = 1.8e-07 | 0.0973 | 0.106
x2 = 0.0002411, x1 = 9e-07 | 0.101 | 0.111
x2 = 0.0002411, x1 = 1.8e-06 | 0.108 | 0.12
